Experimental data published in patent publication US20040219228A1, “Animal model for inflammatory bowel disease” (Pfizer Inc, priority 2003, published 2004).

Columns and labels:
Assay type in all cases: in vivo, mouse
[1] = system: mdr1a^−/− mice; experiment: mdr1a−/− mice given chlorinated drinking water as IBD model: clinical signs, body weight, colon and caecum weights; conditions: for Body weight (Mean ± s.e.m.): end of study; for Growth rate (Mean ± s.e.m.): over study period
Text: Forty male mdr1a^−/− mice (strain FVB.129P2-Pgy3^tm1 N7) and six control male mice (mdr1a^+/+) from the same genetic background (FVB; strain FVB/NTac) (6-8 weeks old) were obtained from Taconic Farms (U.S.A). Mice were individually housed in solid bottom cages containing autoclaved Bee Kay bedding from Bantin & Kingman (U.K.) with the addition of Envirodri, a nesting material made from virgin paper, free from deodorising chemicals, to provide enrichment. Mice were fed on RAT & Mouse No 1 maintenance diet (RMI (E) SQC) (Special Diet services, Witham, Essex, U.K.) on arrival at Pfizer. For this study we used bottled water and Klortabs (5 ppm) (Arrowmight Biosciences, U.K.) to eliminate the possibility of water borne spreading of bacterial pathogens and to provide a water supply with constant levels of chlorine. Water was changed twice a week. This study was carried out in accordance with UK legislation and approved by Pfizer's internal ethical review process.
Prior to commencing the study, all mice (40 mdr1a^−/− and 6 mdr1a^+/+) acclimatised for 14 days. […] A scoring system was devised with different weightings for different clinical signs (Table 1). The intention was that the score should reflect the severity of the colitis.
(§1) Following the acclimatisation period, mdr1a^−/− mice with mild and moderate disease scores (mild disease (0-3) was defined by absence of gain or mild body weight loss (<0.5 g) and no other symptoms, whereas moderate disease (4-10) was defined by similar symptoms as a previous group but with soft faeces or greater loss in body weight (>20%) were randomised into 4 groups and dosed subcutaneously (s.c.) with vehicle (water, n=8) or dexamethasone (0.05 mg/kg, n=9; 0.3 mg/kg, n=8 or 2 mg/kg, n=8) daily for 7 days. The 6 mdr1a^+/+ mice received vehicle (water). During the study period, one mouse from the group treated with 0.3 mg/kg dexamethasone was found dead and two were euthanised (one from the vehicle-treated group and one from the group treated with 0.05 mg/kg dexamethasone). At the end of the study all mice were euthanased. The colon and caecum from each mouse was removed and weighed. Each colon was then divided longitudinally so that one section could be processed for histological analysis and the other for cytokine measurement (see below).
(§2) Data were analysed for the 29 mdr1a^−/− and 6 mdr1a^+/+ mice, which completed the study. Differences between vehicle treated mdr1a^−/− and mdr1a^+/+ mice were analysed using a two sample t-test (assuming equal variance for IFN-γ, growth rate in the acclimatisation period and final weight, and unequal variance for IL-8, colon weight, caecum weight, colon to body weight ratio, caecum to body weight ratio and growth rate during the study period). The effects of dexamethasone treatment were analysed using analysis of variance (ANOVA) allowing for culling group.

[2] = system: IL-8; experiment: IL-8 levels in homogenised colon samples (ELISA); conditions: mdr1a−/− mice
Description: as §1
(§3) Each individual colon sample was homogenised three times for 30 seconds at 4° C. in 3ml of ice-cold Krebs' solution (Sigma Chemical Co. U.K.). Samples were centrifuged for 15 min at 35,000 g (4° C.) and supernatants were removed. IL-8 and IFN-γ levels were then measured by ELISA kits (R&D systems, U.K.). The detection limits of these kits were 31.2-2000 pg/ml. Protein levels was assayed in supernatants using the method described by Bradford (Bradford, M. (1976) Analyt. Biochem. 72, 248-254), utilising Bradford Reagent (Sigma).
as §2

[3] = system: IFN-γ; experiment: IFN-γ levels in homogenised colon samples (ELISA); conditions: mdr1a−/− mice
Description: as §1, §3, §2

[4] = system: colon/rectum of mdr1a^−/− mice; experiment: Histological grading of colitis severity (score 0-4); conditions: for Colitis severity score graded histologically (Mean ± s.e.m.): scale 0-4
Description: as §1
The animals were necropsied. The colon/rectum and caecum were weighed and colon/rectum, caecum, ileum, jejunum, duodenum, stomach, mesenteric nodes, thymus, kidney, spleen were sampled and fixed in 10% buffered formalin solution. The colon/rectum and ileum were prepared in a “Swiss roll” technique (Moolenbeek, C. & Ruitenberg E. J. (1981) Lab Anim 15(1):57-9) to evaluate their whole longitudinal section one slide. Tissues were processed routinely in an automatic tissue processor, embedded in paraffin, sectioned at 4-6 μm, stained with hematoxylin and eosin (HE), and examined histologically. The colitis was graded from 0 (no significant findings) to 4 (severe proliferative and ulcerative inflammation) according to the extent of the findings and severity of mucosal changes (Table 2) by a blinded observer. In addition, the mucosal height of the whole colon/rectum were assessed about every 100 μm with a standard interactive microcomputer-assisted image analysis system.
Colitis severity score is an ordered categorical measure graded on a scale of 0-4. This type of data is generally analysed using a proportional odds model, however due to the small sample size this was not appropriate and ANOVA was used. This makes the assumption of having normally distributed data, which although we had categorical data, seemed to hold approximately true. All analysis was carried out using Genstat 5 Release 4.2 for Windows.

[5] = 0.05 mg/kg s.c. daily for 7 days
[6] = 0.3 mg/kg s.c. daily for 7 days
[7] = lower doses (0.05 and 0.3 mg/kg s.c.)

`C[C@@H]1C[C@H]2[C@@H]3CCC4=CC(=O)C=C[C@]4(C)[C@@]3(F)[C@@H](O)C[C@]2(C)[C@@]1(O)C(=O)CO` [dexamethasone] was tested, and the “Clinical score (Mean ± s.e.m.)” value [1, 5] was 56 ± 8.9, the “Body weight (Mean ± s.e.m.)” value [1, 5] was 22.2 ± 0.77 g and the “Growth rate (Mean ± s.e.m.)” value [1, 5] was -0.427 ± 0.099 g/day. The “Clinical score (Mean ± s.e.m.)” value [1, 6] was 37 ± 8.9, the “Body weight (Mean ± s.e.m.)” value [1, 6] was 22.6 ± 0.77 g and the “Growth rate (Mean ± s.e.m.)” value [1, 6] was -0.260 ± 0.099 g/day. For the same compound, the “Clinical score (Mean ± s.e.m.)” value ([1]; 2 mg/kg s.c. daily for 7 days) was 32 ± 8.3, the “Body weight (Mean ± s.e.m.)” value ([1]; 2 mg/kg s.c. daily for 7 days) was 22.7 ± 0.72 g and the “Growth rate (Mean ± s.e.m.)” value ([1]; 2 mg/kg s.c. daily for 7 days) was -0.271 ± 0.093 g/day. For the same compound, the “Colon to body weight ratio” value ([1]; 2 mg/kg s.c. daily for 7 days, vehicle 3.0±0.28, P=0.017) was 2.1±0.26, the Absolute colon weight ([1]; 2 mg/kg s.c. daily for 7 days, vehicle 691±52 mg, P<0.01) was 456 ± 48 mg and the “Effect on overall clinical scores of colitis” value ([1]; 0.05-2 mg/kg s.c.) was “no effect”. The “Effect on final body weight” value ([1]; any of the doses used) was “no significant effect”, the “Effect on growth rate” value ([1]; any of the doses used) was “no significant effect” and the “Effect on absolute colon weight vs. vehicle” value [1, 7] was “no significant effect”. The “Effect on colon to body weight ratio vs. vehicle” value [1, 7] was “no significant effect”, the “IL-8 level in homogenised colon (Mean ± s.e.m)” value (“IL-8 level in homogenised colon” for short) [2, 5] was 317 ± 65.7 pg/mg protein and the “IL-8 level in homogenised colon” value [2, 6] was 264 ± 65.7 pg/mg protein. The “IL-8 level in homogenised colon” value ([2]; 2 mg/kg s.c. daily for 7 days) was 220 ± 61.5 pg/mg protein, the “Effect on IL-8 levels in homogenised colons” value ([2]; any of the doses used) was “no effect” and the “IFN-γ level in homogenised colon (Mean ± s.e.m)” value (from here on “IFN-γ level in homogenised colon”) [3, 5] was 177 ± 32.6 pg/mg protein. For the same compound, the “IFN-γ level in homogenised colon” value [3, 6] was 169 ± 32.6 pg/mg protein, the “IFN-γ level in homogenised colon” value ([3]; 2 mg/kg s.c. daily for 7 days) was 100 ± 30.5 pg/mg protein and the “Effect on IFN-γ levels in homogenised colons” value ([3]; any of the doses used) was “no effect”. For the same compound, the “Colitis severity score graded histologically (Mean ± s.e.m.)” value [4, 5] was 4.0 ± 0.42, the “Colitis severity score, difference from vehicle” value ([4]; 0.05 mg/kg s.c., p >0.05) was 0.3 and the “Colitis severity score graded histologically (Mean ± s.e.m.)” value [4, 6] was 3.1 ± 0.42. The “Colitis severity score, difference from vehicle” value ([4]; 0.3 mg/kg s.c., p >0.05) was −0.6, the “Colitis severity score graded histologically (Mean ± s.e.m.)” value ([4]; 2 mg/kg s.c. daily for 7 days) was 2.4 ± 0.39 and the “Colitis severity score, difference from vehicle” value ([4]; 2 mg/kg s.c., p <0.05) was −1.3.
